The values that follow come from ChEMBL document CHEMBL1687775, “Bioavailability and population pharmacokinetics of voriconazole in lung transplant recipients” (Antimicrob Agents Chemother, 2010).

Holding throughout (type): ADME, organism-based
Data set [1] in a line: Tmax in lung transplant recipient at 6 mg/kg, iv twice a day administered immediately post transplant as 2 hr infusion followed by 200 mg, po bid for 3 months by HPLC analysis. Also on record: dose 6 mg/kg, route oral. Particulars: human, in vivo.
Data set [2] is described as follows: Cmax in lung transplant recipient at 6 mg/kg, iv twice a day administered immediately post transplant as 2 hr infusion. Also on record: dose 6 mg/kg, route intravenous. As to conditions: human, in vivo.
Data set [3] is described as follows: Plasma concentration in lung transplant recipient at 6 mg/kg, iv twice a day administered immediately post transplant as 2 hr infusion followed by 200 mg, po bid for 3 months by HPLC analysis. Also on record: dose 6 mg/kg, route oral. Particulars: human.
Data set [4] in a line: Cmax in lung transplant recipient at 6 mg/kg, iv twice a day administered immediately post transplant as 2 hr infusion followed by 200 mg, po bid for 3 months by HPLC analysis. As to conditions: human, in vivo. Also on record: dose 6 mg/kg, route oral.

By Tmax is commonly meant the time at which the peak concentration occurs. As a reminder, the Cmax is the peak of the concentration-time curve. As for `C[C@@H](c1ncncc1F)[C@](O)(Cn1cncn1)c1ccc(F)cc1F` [VORICONAZOLE], in data set [1], the Tmax turned out to be 1.9 h. For the same compound, the Cmax in data set [2] is 3600 ng/mL; in data set [4] it was 5900 ng/mL. The compound also yielded a concentration at 2 h in data set [3] of 1000 ng/mL.
